Assay results reported in US20260327196A1, “AMINO ACID DERIVATIVES FOR DETECTING NEUROLOGICAL DISORDERS” (Amydis, Inc., priority 2023, published 2026).
Structures can show the parent of a compound that is named as a salt. One block for each molecule: values may come before it.

Assays:
[1] = tested on: Hyperphosphorylated three repeat tau protein; experiment: In vivo detection in TBI mouse model, fluorescent imaging of retinas; details: intravenous administration, removed retinas, fluorescence microscope; wild type mice of comparable age: no immunostaining
Protocol: Model mice having a target protein, for example, an amyloid beta protein, or a phosphorylated tau protein, or an accumulated mass thereof, are administered compound 1, 2, or 3 intravenously. Retinas of the mice are removed and are mounted on slides. The retinas are washed with PBS 2 times for 5 minutes. A solution of 98% formic acid is added-5 minutes for antigen retrieval. The sampled are washed with distilled water-2 times for 5 minutes. The samples are equilibrated in 1×PBS for 15 minutes, then blocked with 10% goat/donkey serum in 1×PBST (depending on antibodies) for 1 hour. Samples are covered in foil, and washed with 1×PBS 3 times for 5 minutes each. Samples are stained with DAPI (300 nM or 100 ng/ml) in dark for 10 minutes, then tissues are washed 3×10 minutes with PBS. Antifade DAKO mounting medium is added, and coverslip and kept under foil until imaging.
Fluorescent imaging study of the samples is conducted on a Leica DMI 4000B microscope (Leica, Germany) equipped with a TCS SPE camera and Leica 10, 20 and 40× objectives. The following lasers are used to visualize fluorescent probes pertaining to DAPI (blue, nuclear stain), compound 1, 2, or 3 (green) and hyperphosphorylated tau (red): 408, 488 and 568 nm. Z-stacked images are taken at 40× at 0.5 μm increments to visualize the entire thickness of the tissue.

[2] = tested on: amyloidogenic protein aggregates (e.g., Aβ, aSyn, TTR, and TDP43); experiment: In vitro characterization: binding to amyloidogenic protein aggregates; details: 4 μM compound 1, 5 μM aggregated protein; excitation 450 and 488 nm
Protocol: (§1) An in vitro study was carried out to characterize the fluorescent properties of compound 1 and its binding to amyloidogenic protein aggregates (e.g., Aβ, aSyn, TTR, and TDP43).
(§2) Compound 1 (4 μM) was prepared with or without 5 μM aggregated amyloidogenic protein in 1× phosphate-buffered saline (PBS). The emission spectra of compound 1 for each sample were collected according to the following protocol and the corresponding fold increases (compound 1+amyloid aggregate/compound 1) were calculated.
The following protocol was adopted in this study: • 1. Turn on the fluorimeter and let warm up for-30 minutes • 2. Allow aggregated amyloid protein (100 μM) solution to warm to room temperature • 3. Allow the compound 1 to warm to room temperature • 4. Prepare 1×PBS, pH 7.4. • 5. Prepare blank solution of DMSO/PBS (2.42 μl DMSO in 147.6 μl PBS, pH 7.4) • 6. Prepare a 250 μM solution of compound 1 in DMSO. Keep samples in the dark at room temperature. • 7. Prepare a 4 μM compound 1 solution with and without 5 μM aggregated amyloid protein • 8. Measure the emission scan of compound 1+aggregated amyloid protein solution using 1) 450 nm and 2) 488 nm as the excitation wavelength. Record the emission sweep from 450 nm-750 nm. Determine Amax from these spectra • 9. […] Export the data and plot relative fluorescence intensity (RFI) versus wavelength for emission spectra

TDP43 = TDP43 (Homo sapiens, UniProt Q13148); experiment: Fluorescence emission / binding of compound 1 to aggregated amyloidogenic protein (Table A); details: 4 μM compound 1, 5 μM aggregated protein, 1×PBS pH 7.4
Protocol: as §1, §2
(§3) The following protocol was adopted in this study: • 1. Turn on the fluorimeter and let warm up for-30 minutes • 2. Allow aggregated amyloid protein (100 μM) solution to warm to room temperature • 3. Allow the compound 1 to warm to room temperature • 4. Prepare 1×PBS, pH 7.4. • 5. Prepare blank solution of DMSO/PBS (2.42 μl DMSO in 147.6 μl PBS, pH 7.4) • 6. Prepare a 250 μM solution of compound 1 in DMSO. Keep samples in the dark at room temperature. • 7. Prepare a 4 μM compound 1 solution with and without 5 μM aggregated amyloid protein • 8. Measure the emission scan of compound 1+aggregated amyloid protein solution using 1) 450 nm and 2) 488 nm as the excitation wavelength. Record the emission sweep from 450 nm-750 nm. Determine Amax from these spectra • 9. Repeat step 8 for 4 μM compound 1 without amyloid protein • 10. Export the data and plot relative fluorescence intensity (RFI) versus wavelength for emission spectra

aSyn = aSyn (Homo sapiens, UniProt P37840); experiment: as above; details: 4 μM compound 1, 5 μM aggregated protein, 1×PBS pH 7.4
Protocol: as §1, §2, §3

TTR = TTR (Homo sapiens, UniProt P02766); experiment: as above; details: 4 μM compound 1, 5 μM aggregated protein, 1×PBS pH 7.4
Protocol: as §1, §2, §3

Aβ = Aβ (Homo sapiens, UniProt P05067); experiment: as above; details: 4 μM compound 1, 5 μM aggregated protein, 1×PBS pH 7.4
Protocol: as §1, §2, §3

[3] = tested on: aggregates in ALS ex vivo retina cadaver tissue; experiment: Ex vivo human cadaver imaging study, flat mounted ALS retinas stained with compound 1; details: 60 μM compound 1, 30 minutes at room temperature, confocal microscope
Protocol: An ex vivo human cadaver imaging study was carried out using compound 1. Flat mounted retinas extracted from ALS (amyotrophic lateral sclerosis) human cadavers were stained with compound 1 (60 μM) and images were collected.
The following staining protocol was adopted in this study:
• (i) Fix tissue in room temperature 4% PFA for 20 minutes, wash, permeabilize, and block (5% goat serum in PBST for 1 hour) • (ii) Incubate with 60 μM compound 1 in 1×PBS for 30 minutes at room temperature • (iii) Wash with PBS (3 times for 5 minutes) • (iv) Mount tissue using antifade Prolong Glass mounting media. • (v) Image with confocal microscope • (vi) Add lambda scanning imaging protocol to determine the emission peak.

[4] = tested on: amyloid-like deposits in the retina; experiment: In vivo NHP imaging study, fundus autofluorescence (FAF); parameters: species or system non-human primates (monkeys); details: 5.13 mg/kg IV bolus
Protocol: An in vivo imaging study was carried out in non-human primates (NHP).
Compound 1 was administered to ketamine xylazine-anesthetized monkeys as a single bolus intravenous dose according to Table B. In-vivo fundus autofluorescence (FAF) images were collected prior to injection and at 2-, 5-, 15-, and 30-minutes post injection.
The compound 1 solution for injection (7 mg/mL compound 1 in 13 mM sodium bicarbonate buffered at pH 4.2) was prepared according to the following steps: • 1. Add 3 g sodium bicarbonate to 100 mL water (0.03 g/ml) • 2. Weigh out 4 g of PEG-400 (d. 1.13 g/mL) into an amber, or light isolated, 20 mL storage container containing a stir bar • 3. Add 200 mg of compound 1-HCl to the PEG-400 • 4. Add 20 mL water and stir until clear (~10 min) • 5. Add dropwise 0.6 ml of 0.03 g/ml sodium bicarbonate solution and stir 10 min (PH ~3.8) • 6. Add dropwise another 0.2 ml of the sodium bicarbonate solution and stir 10 min to adjust pH to 4.2 to provide a clear red solution • 7. Filter through 1 inch 0.22 μm diameter syringe filter to give a red clear solution into a presterilized sealed 20 mL amber glass vial • 8. Test the pH to confirm ~4.2 • 9. Transfer the remaining formulation into a 5 mL presterilized amber glass vial and place into a −20° C. freezer for analytical testing. The vial can be stored for up to 1 hour prior to use. • 10. Inject with a sterile syringe attached to a 0.22-micron PVDF membrane filter and needle. Use within 1 hour.

[5] = FAF images at 2, 5, 15 and 30 minutes post injection

Chain of Aβ (P05067 672-713 limits assumed): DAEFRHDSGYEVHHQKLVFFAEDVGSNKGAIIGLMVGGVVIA
Chain of TDP43 (Q13148 whole entry): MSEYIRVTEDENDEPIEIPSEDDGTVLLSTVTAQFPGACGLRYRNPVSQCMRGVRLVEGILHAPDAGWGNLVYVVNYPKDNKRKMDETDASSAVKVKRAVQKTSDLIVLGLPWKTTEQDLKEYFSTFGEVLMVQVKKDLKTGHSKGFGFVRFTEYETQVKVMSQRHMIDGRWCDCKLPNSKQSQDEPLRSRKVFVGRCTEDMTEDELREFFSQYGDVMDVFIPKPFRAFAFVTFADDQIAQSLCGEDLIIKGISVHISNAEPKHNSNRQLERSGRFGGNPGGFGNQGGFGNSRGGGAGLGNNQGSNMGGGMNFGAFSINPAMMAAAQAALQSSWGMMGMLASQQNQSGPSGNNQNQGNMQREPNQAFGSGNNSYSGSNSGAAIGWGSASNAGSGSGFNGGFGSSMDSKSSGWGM

- Fold (fold increase, compound 1+amyloid aggregate/compound 1) (TDP43; excitation 450 nm): 6.1 fold
- λmax (TDP43; excitation 450 nm): 544 nm
- Fold (fold increase, compound 1+amyloid aggregate/compound 1) (TDP43; excitation 488 nm): 4.70 fold
- λmax (TDP43; excitation 488 nm): 529 nm
- Fold (fold increase, compound 1+amyloid aggregate/compound 1) (aSyn; excitation 450 nm): 174.1 fold
- λmax (aSyn; excitation 450 nm): 530 nm
- Fold (fold increase, compound 1+amyloid aggregate/compound 1) (aSyn; excitation 488 nm): 110.8 fold
- λmax (aSyn; excitation 488 nm): 538 nm
- Fold (fold increase, compound 1+amyloid aggregate/compound 1) (TTR; excitation 450 nm): 11.5 fold
- λmax (TTR; excitation 450 nm): 543 nm
- Fold (fold increase, compound 1+amyloid aggregate/compound 1) (TTR; excitation 488 nm): 5.9 fold
- λmax (TTR; excitation 488 nm): 549 nm
- Fold (fold increase, compound 1+amyloid aggregate/compound 1) (Aβ; excitation 450 nm): 25.3 fold
- λmax (Aβ; excitation 450 nm): 550 nm
- Fold (fold increase, compound 1+amyloid aggregate/compound 1) (Aβ; excitation 488 nm): 17.9 fold
- λmax (Aβ; excitation 488 nm): 555 nm
Structure (SMILES): N#C/C(=C\c1ccc2cc(N3CCCCC3)ccc2c1)C(=O)NCCOCCOCCOC(=O)CN [Compound 1, (E)-2-(2-(2-(2-cyano-3-(6-(piperidin-1-yl)naphthalen-2-yl)acrylamido)ethoxy)ethoxy)ethyl glycinate hydrochloride salt]
- detection of hyperphosphorylated three repeat tau in the retina (fluorescent signal) [1]: Hyperphosphorylated three repeat tau protein is detected in the retina, producing a detectable fluorescent signal
- binding to the aggregated amyloidogenic proteins in vitro [2]: successfully bound to the aggregated amyloidogenic proteins in vitro
- labeling of aggregates in ALS retina [3]: labeled aggregates in ALS ex vivo retina cadaver tissue
- hyperfluorescence in vasculature and retinal tissue following injection [4, 5]: hyperfluorescence was observed within minutes in the vasculature following injection and subsequently in the retinal tissue
- labeling of amyloid-like deposits in the retina [4, 5]: labeled amyloid-like deposits in the retina
- clearance of signal from the vascular system ([4]; FAF images up to 30 minutes post injection): signal cleared quickly from the vascular system

Structure (SMILES): CC(C)(C)OC(=O)NCC(=O)OCCOCCOCCNC(=O)/C(C#N)=C/c1ccc2cc(N3CCCCC3)ccc2c1 [Compound 2, (E)-2-(2-(2-(2-cyano-3-(6-(piperidin-1-yl)naphthalen-2-yl)acrylamido)ethoxy)ethoxy)ethyl (tert-butoxycarbonyl)glycinate]
- detection of hyperphosphorylated three repeat tau in the retina (fluorescent signal) [1]: Hyperphosphorylated three repeat tau protein is detected in the retina, producing a detectable fluorescent signal

Structure (SMILES): C[C@H](N)C(=O)OCCOCCOCCNC(=O)/C(C#N)=C/c1ccc2cc(N3CCCCC3)ccc2c1 [Compound 3, (E)-2-(2-(2-(2-cyano-3-(6-(piperidin-1-yl)naphthalen-2-yl)acrylamido)ethoxy)ethoxy)ethyl L-alaninate hydrochloride salt]
- detection of hyperphosphorylated three repeat tau in the retina (fluorescent signal) [1]: Hyperphosphorylated three repeat tau protein is detected in the retina, producing a detectable fluorescent signal
